Assays:
[1] = system: HT-29 human colon adenocarcinoma cells; experiment: MTT assay, antiproliferative effect; type: cell-based; details: HT-29, 72 h, 3 days, read-out: Viability of HT-29 cells as determined by MTT assay
Experimental: Evaluation of Antiproliferative Effect (MTT Assay)
The antiproliferative activity of test compounds was determined by the 3-(4,5-dimethylthiazol-2-yl)-2,5-diphenyltetrazolium bromide (MTT) assay as described previously (Mosmann, T. et al. (1983) J. Immunol. Methods 65: 55-63). Cells in the exponential growth phase were transferred to 96-well flat-bottomed plates. 10,000 viable cells contained in 200 μl cell suspension were plated into each well and incubated over night. Cells were then exposed to various concentrations of test compounds (100 μl/well) for 3 days at 37° C. with 5% CO2. Subsequently, 10 μl/well MTT stock solution (5 mg/ml; Biomol, Germany) were added and the cells were incubated at 37° C. with 5% CO2 for 4 hours. 100 μl solubilization solution (10% SDS in 0.01 M HCl) were added and the cells were incubated at 37° C. with 5% CO2 over night. Plates were read on an ELISA-Reader ELX 800 (BIO-TEK Software KC 4) at 562 nm absorbance. Each experiment was done in triplicate.
(§1) Working solutions of 26 mM test compound in DMSO were prepared and stored in aliquots at −20° C. A 29.6 mM stock solution of irinotecan in water was prepared and stored in aliquots at 4° C. The drugs were diluted in culture medium immediately before use to obtain the desired concentrations.
(§2) The human colon cancer cell line HT-29 was obtained from the DSMZ, Germany. […] cells were cultured in RPMI 1640 supplemented with 10% FCS at 37° C. and 5% CO2.
The antitumor activity of test compounds was examined against HT-29 human colon adenocarcinoma cells using MTT assay (method described above).

[2] = biological target: VEGFR-2 (Homo sapiens (Human), UniProt P35968); experiment: VEGFR-2 kinase assay (Millipore IC50Profiler); type: biochemical
Chain of VEGFR-2 (P35968 20-1356): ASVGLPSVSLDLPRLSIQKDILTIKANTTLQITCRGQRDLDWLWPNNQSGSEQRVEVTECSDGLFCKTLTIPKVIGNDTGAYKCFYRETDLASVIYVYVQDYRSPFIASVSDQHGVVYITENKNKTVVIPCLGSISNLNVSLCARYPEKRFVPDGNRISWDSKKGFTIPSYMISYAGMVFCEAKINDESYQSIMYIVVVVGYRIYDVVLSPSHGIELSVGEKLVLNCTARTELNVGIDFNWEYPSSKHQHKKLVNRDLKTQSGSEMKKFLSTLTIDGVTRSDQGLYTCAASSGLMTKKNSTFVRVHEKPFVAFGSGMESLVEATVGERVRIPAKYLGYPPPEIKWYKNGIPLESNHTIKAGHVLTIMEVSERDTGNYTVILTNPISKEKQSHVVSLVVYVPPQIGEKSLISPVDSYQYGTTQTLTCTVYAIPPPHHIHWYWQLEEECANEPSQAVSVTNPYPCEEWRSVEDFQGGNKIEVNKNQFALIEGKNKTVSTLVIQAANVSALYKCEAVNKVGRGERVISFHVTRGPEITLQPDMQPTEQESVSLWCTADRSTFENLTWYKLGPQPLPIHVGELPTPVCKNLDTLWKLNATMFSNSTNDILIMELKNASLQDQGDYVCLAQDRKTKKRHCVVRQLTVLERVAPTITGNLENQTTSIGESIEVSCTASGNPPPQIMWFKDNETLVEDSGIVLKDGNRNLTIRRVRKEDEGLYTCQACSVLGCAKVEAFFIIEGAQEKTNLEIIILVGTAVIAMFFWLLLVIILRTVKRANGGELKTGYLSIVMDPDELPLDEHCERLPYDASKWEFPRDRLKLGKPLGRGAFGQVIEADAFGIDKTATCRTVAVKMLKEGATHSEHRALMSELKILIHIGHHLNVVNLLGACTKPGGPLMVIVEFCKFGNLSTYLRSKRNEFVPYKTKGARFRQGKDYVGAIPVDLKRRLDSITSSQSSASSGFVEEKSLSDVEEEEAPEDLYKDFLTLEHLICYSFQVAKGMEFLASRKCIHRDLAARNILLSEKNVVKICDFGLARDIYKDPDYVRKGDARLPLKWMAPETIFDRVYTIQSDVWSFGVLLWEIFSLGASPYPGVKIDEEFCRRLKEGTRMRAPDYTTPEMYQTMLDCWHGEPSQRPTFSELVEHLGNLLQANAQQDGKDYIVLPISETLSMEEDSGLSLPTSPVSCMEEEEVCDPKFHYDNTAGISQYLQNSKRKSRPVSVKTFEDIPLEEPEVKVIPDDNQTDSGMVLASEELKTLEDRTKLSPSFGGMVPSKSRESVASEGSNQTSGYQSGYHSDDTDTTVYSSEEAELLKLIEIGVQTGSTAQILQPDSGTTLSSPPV
From the text: (§3) GSK-3β, VEGFR-2, FLT-3, Kinase Assays
Detailed protocols can be found at: www.millipore.com/drugdiscovery/dd3/assayprotocols.

[3] = biological target: FLT-3 (Homo sapiens (Human), UniProt P36888); experiment: FLT-3 kinase assay (Millipore IC50Profiler); type: biochemical
Chain of FLT-3 (P36888 27-993): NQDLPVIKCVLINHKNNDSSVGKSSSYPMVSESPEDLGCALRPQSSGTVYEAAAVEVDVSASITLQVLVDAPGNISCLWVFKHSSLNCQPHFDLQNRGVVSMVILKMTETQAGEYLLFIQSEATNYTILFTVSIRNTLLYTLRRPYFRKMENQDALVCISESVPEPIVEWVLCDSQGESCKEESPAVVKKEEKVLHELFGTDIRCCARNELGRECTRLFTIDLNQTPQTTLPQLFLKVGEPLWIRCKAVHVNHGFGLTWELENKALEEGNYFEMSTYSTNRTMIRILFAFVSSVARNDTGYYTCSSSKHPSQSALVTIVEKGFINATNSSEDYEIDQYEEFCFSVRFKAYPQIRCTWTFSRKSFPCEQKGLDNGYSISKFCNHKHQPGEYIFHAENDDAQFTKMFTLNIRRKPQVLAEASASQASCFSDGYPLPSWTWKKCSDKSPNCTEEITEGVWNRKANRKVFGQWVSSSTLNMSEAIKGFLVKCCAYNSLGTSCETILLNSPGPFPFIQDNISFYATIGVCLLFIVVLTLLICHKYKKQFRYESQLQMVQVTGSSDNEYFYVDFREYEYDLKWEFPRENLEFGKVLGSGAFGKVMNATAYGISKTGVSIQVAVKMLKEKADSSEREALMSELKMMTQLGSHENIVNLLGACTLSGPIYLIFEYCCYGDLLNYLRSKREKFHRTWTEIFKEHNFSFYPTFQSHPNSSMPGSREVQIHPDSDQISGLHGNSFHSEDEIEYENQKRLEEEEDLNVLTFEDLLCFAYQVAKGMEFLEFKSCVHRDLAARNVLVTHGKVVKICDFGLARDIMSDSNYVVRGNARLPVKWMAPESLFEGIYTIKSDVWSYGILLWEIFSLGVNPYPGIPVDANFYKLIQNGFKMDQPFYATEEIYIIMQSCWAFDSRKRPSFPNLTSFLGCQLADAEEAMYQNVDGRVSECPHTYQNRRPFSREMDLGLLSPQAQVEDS
Experimental: as §3
(§4) The effect of test compounds on the activity of the protein kinases GSK-3β, VEGFR-2 and FLT-3 was evaluated based on half maximal inhibitory concentration (IC50) values determined by Millipore UK Ltd; Gemini Crescent; Dundee Technology Park; Dundee DD2 1SW; UK (IC50Profiler). Detailed protocols can be found at: www.millipore.com/drugdiscovery/dd3/assayprotocols.
(§5) The inhibitory effect of test compounds on protein kinases VEGFR-2, FLT-3 and GSK-3β was investigated using respective kinase inhibition assays (method described above) and the values of half maximal inhibitory concentration (IC50) were determined from the assay results. […] Thus, compounds with selective kinase profiles were identified, which may allow application specific for a certain tumor or condition while showing less side-effects caused by activity against other kinases.

[4] = biological target: GSK-3β (Homo sapiens (Human), UniProt P49841); experiment: GSK-3β kinase assay (Millipore IC50Profiler); type: biochemical
Chain of GSK-3β (P49841 whole entry): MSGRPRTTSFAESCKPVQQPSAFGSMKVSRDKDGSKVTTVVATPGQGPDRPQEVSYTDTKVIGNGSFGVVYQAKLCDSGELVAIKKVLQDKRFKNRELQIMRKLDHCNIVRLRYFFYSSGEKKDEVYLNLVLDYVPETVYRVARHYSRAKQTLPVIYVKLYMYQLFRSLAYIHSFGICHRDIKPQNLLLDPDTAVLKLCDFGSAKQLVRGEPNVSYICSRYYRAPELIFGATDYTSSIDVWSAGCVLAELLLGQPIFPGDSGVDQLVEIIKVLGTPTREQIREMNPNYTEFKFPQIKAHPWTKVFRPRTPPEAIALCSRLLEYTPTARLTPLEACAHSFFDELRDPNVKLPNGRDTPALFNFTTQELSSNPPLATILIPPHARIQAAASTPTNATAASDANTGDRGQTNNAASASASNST
Experimental: as §3, §4, §5

[5] = system: HT-29 cells; experiment: Nicoletti apoptosis assay by cell cycle analysis (sub-G1 fraction); type: cell-based, human; details: 7 days
Experimental: Nicoletti Apoptosis Assay by Cell Cycle Analysis
Cancer cells were transferred to 12-well flat-bottomed plates. 1.5×10^5 viable cells contained in 1 ml cell suspension were plated into each well and incubated over night before exposure with various concentrations of drugs. Subsequently, cells were incubated in 1 ml medium containing various concentrations of test compounds at 37° C. with 5% CO2. After incubation the cells were washed with PBS, trypsinized, pelleted and mixed with PI buffer (containing 0.1% sodium citrate, 0.1% triton X-100, […] propidium iodide (PI)) and incubated for 1 hour at 4° C. Cell cycle sub-G1 fraction analysis was performed as described previously (Nicoletti, I. et al. (1991) J. Immunol. Methods 139: 271-279) using a flow cytometer (BD FACS Calibur™, BD Biosciences, Heidelberg, Germany). Each experiment was done in triplicate.
as §1, §2
Compounds of the invention (test compounds) and the topoisomerase I inhibitor irinotecan were analyzed for their individual and combined effect in apoptosis assay (method described above). Induction of apoptosis was determined by cell cycle analysis (% sub-G1 fraction) after incubating HT-29 cells with test compounds, irinotecan or combinations thereof, respectively, for 7 days.

[6] = In vitro hepatic microsome stability; type: in vitro ADME; details: rat liver microsomes in Tris buffer
Experimental: Metabolic conversion was evaluated by incubating compounds of the invention (test compounds) with rat liver microsomes (BD Biosciences) in Tris buffer.

[7] = 8 μM test compound plus 1.18 μM irinotecan

| IC50 [2] [nM] | IC50 [3] [nM] | IC50 [4] [nM] | Metabolic conversion (degradation, metabolite formed) [6] | SMILES | viability at 1 µM [1] [%] | viability at 10 µM [1] [%] | viability at 20 µM [1] [%] | viability at 50 µM [1] [%] | Sub-G1 Fraction ([5]; 8 μM test compound only) [%] | Sub-G1 Fraction [5, 7] [%] | Sub-G1 Fraction ([5]; 1.18 μM irinotecan only) [%] |
| --- | --- | --- | --- | --- | --- | --- | --- | --- | --- | --- | --- |
| ≥ 1000 | ≥ 1000 | 208 | – | COc1cc(C2=C(c3cn(CCCNC(=O)C(N)CC(C)C)c4ccccc34)C(=O)NC2=O)cc(OC)c1OC (stereo not shown) [Compound A, 2-Amino-N-(3-(3-(2,5-dioxo-4-(3,4,5-trimethoxyphenyl)-2,5-dihydro-1H-pyrrol-3-yl)-1H-indol-1-yl)propyl)-4-methylpentanamide] | 94.9 ± 4.6 | 68.7 ± 0.9 | 59.2 ± 5.4 | 26 ± 8.9 | 7.4 ± 0.5 | 38.9 ± 2.8 | – |
| – | 556 | 2250 | gave its metabolite Z1 | COc1cc(C2=C(c3cn(CCCO)c4ccccc34)C(=O)NC2=O)cc(OC)c1OC [Compound C1, 3-(1-(3-hydroxypropyl)indol-3-yl)-4-(3,4,5-trimethoxyphenyl)-1H-pyrrole-2,5-dione] | – | – | – | – | – | – | – |
| ≥ 1000 | 480 | 134 | time dependent degradation | COc1cc(C2=C(c3cn(CCCOC(=O)C(N)CC(C)C)c4ccccc34)C(=O)NC2=O)cc(OC)c1OC (stereo not shown) [Compound C, 3-(3-(2,5-Dioxo-4-(3,4,5-trimethoxyphenyl)-2,5-dihydro-1H-pyrrol-3-yl)-1H-indol-1-yl)propyl 2-amino-4-methylpentanoate] | 96.7 ± 3.3 | 49.3 ± 1.1 | 51 ± 2.3 | – | 6.6 ± 0.4 | 39.2 ± 0.7 | – |
| 251 | 239 | 12 | yield metabolite D1 | COc1cc(C2=C(c3cn(CCOC(=O)C(N)CC(C)C)c4ccccc34)C(=O)NC2=O)cc(OC)c1OC (stereo not shown) [Compound D, 2-(3-(2,5-Dioxo-4-(3,4,5-trimethoxyphenyl)-2,5-dihydro-1H-pyrrol-3-yl)-1H-indol-1-yl)ethyl 2-amino-4-methylpentanoate] | 104 ± 6.4 | 99.4 ± 8.3 | 94.5 ± 8.3 | 65.3 ± 3.3 | 6.2 ± 0.8 | 44.5 ± 1.5 | – |
| – | – | – | – | CCc1c2c(nc3ccc(OC(=O)N4CCC(N5CCCCC5)CC4)cc13)-c1cc3c(c(=O)n1C2)COC(=O)[C@]3(O)CC [irinotecan, reference compound] | – | – | – | – | – | – | 26.1 ± 2.1 |

| SMILES | IC50 [2] [nM] | IC50 [3] [nM] | IC50 [4] [nM] | Metabolic conversion (degradation, metabolite formed) [6] | viability at 1 µM [1] [%] | viability at 10 µM [1] [%] | viability at 20 µM [1] [%] | viability at 50 µM [1] [%] | Sub-G1 Fraction ([5]; 8 μM test compound only) [%] | Sub-G1 Fraction [5, 7] [%] | Sub-G1 Fraction ([5]; 1.18 μM irinotecan only) [%] |
| --- | --- | --- | --- | --- | --- | --- | --- | --- | --- | --- | --- |
| COc1cc(C2=C(c3cn(CCCO)c4ccccc34)C(=O)NC2=O)cc(OC)c1OC [Compound D1, 3-(1-(3-hydroxypropyl)indol-3-yl)-4-(3,4,5-trimethoxyphenyl)-1H-pyrrole-2,5-dione] | – | – | – | upon further degradation gave compound Z1 | – | – | – | – | – | – | – |
| COc1cc(C2=C(c3c[nH]c4ccccc34)C(=O)NC2=O)cc(OC)c1OC [Compound Z1, 3-(1-H-indol-3-yl)-4-(3,4,5-trimethoxyphenyl)-1H-pyrrole-2,5-dione] | 90 | 270 | > 1000 | metabolized to form metabolite Z2 | – | – | – | – | – | – | – |

Reference: patent US8957103B2, “Conjugated 3-(indolyl)- and 3-(azaindolyl)-4-arylmaleimide compounds and their use in tumor treatment” (Johannes Gutenberg—Universitat Mainz, priority 2010, dated 2015)
